The values that follow come from the OligoGym collection.

“And” between values parts separate entries of the source, which are not always exact repeats. Equal entries are not always repeated. After the bases stand the sugars from the 5' end (letter, count) and the backbone: PS all phosphorothioate, else s phosphorothioate and o phosphodiester by linkage. Methylation of C is not given here. e = 2'-O-(2-methoxyethyl) (MOE); k = constrained ethyl (cEt); d = 2'-deoxy (DNA); m = 2'-O-methyl

The target in series [1] is IRF4. The note with it: ASO.
The target in series [2] is HSD17B13. The note with it: ASO, HepaRG.

Regarding CGAGCGGTGAAACTGA (sugars k3 d10 k3, PS), in series [1] (SK-MEL-28, 4 µM), the target mRNA inhibition came to 33%. Still for that read-out and setting: the same measure for TCCTTTGGGTGCTTTC (sugars k3 d10 k3, PS): 32%; for TTTCATAGCTAGTTCA (sugars k3 d10 k3, PS): 56%. The same measure, in the same setting: the same measure for TGCTTCAACACACTGT (sugars k3 d10 k3, PS): 3%.

As for “GATTATATACTGGTTG (sugars kddddddddddkekek, PS)”, the target mRNA inhibition in series [1] (MM.1R, 1 µM) stood at 48%. Turning to TAGATTGTAGGACAGA (sugars k3 d10 k3, PS), in series [1] (SK-MEL-28, 4 µM), the target mRNA inhibition stood at 28%. Same read-out and setting: the same measure for AGGGAATCCCTTATTA (sugars k3 d10 k3, PS): 6%. Turning to “TGCTTGAGGTTTTCCT (sugars e1 k2 d9 k2 e2, PS)”, in series [1] (MM.1R, 1 µM), the target mRNA inhibition amounted to 35%. For GTATTTATGCCCTCGC (sugars k3 d10 k3, PS), in series [1] (SK-MEL-28, 4 µM), the target mRNA inhibition was 53%. For “TTGGTTGGCTGGTCTT (sugars kkdddddddddekeke, PS)”, the target mRNA inhibition in series [1] (MM.1R, 1 µM) was determined as 34%.

Regarding ATGTAAGTGATAGGTA (sugars k3 d10 k3, PS), the target mRNA inhibition in series [1] (SK-MEL-28, 4 µM) is 70%.

Consider GACTGACAGCCGAAGC (sugars k3 d10 k3, PS), for which the target mRNA inhibition in series [1] (MM.1R, 1 µM) is 27%.

As to CGCCGGCACAGGCGCG (sugars k3 d10 k3, PS), the target mRNA inhibition in series [1] (MM.1R, 1 µM) worked out at 14%. For CCTTAGGATAATATAC (sugars k3 d10 k3, PS), the target mRNA inhibition in series [1] (SK-MEL-28, 4 µM) turned out to be 23%. Still for that read-out and setting: the same measure for CCACCTCCATTCTAAC (sugars k3 d10 k3, PS): -15%. Same read-out and setting: the same measure for TACTGCTTGAGGTTTT (sugars k3 d10 k3, PS): 50%. For the sequence GTGTGTGCACTCGCGC (sugars k3 d10 k3, PS), in series [1] (MM.1R, 1 µM), the target mRNA inhibition stood at 19%. Take TTCTTTATAGTAGGTA (sugars k3 d10 k3, PS): the target mRNA inhibition in series [1] (MM.1R, 1 µM) was determined as 15%.

For TGCTGCAAATCCCTCT (sugars k3 d10 k3, PS), the target mRNA inhibition in series [1] (MM.1R, 1 µM) was 21%.

As for GCTGAACTGTGTAATG (sugars k3 d10 k3, PS), the target mRNA inhibition in series [1] (SK-MEL-28, 4 µM) is 58%. On the same count and under the same terms, the same measure for GAATTAGGTGCTTAAT (sugars k3 d10 k3, PS): 59%. Same read-out and setting: the same measure for TTCATAGCTAGTTCAT (sugars k3 d10 k3, PS): 44%. Regarding TCTTCTGGATTGCTGA (sugars k3 d10 k3, PS), the target mRNA inhibition in series [1] (MM.1R, 1 µM) came to 20%.

On to TCTCCCACACCAGCCC (sugars k3 d10 k3, PS), for which the target mRNA inhibition in series [1] (SK-MEL-28, 4 µM) was found to be 6%. Same read-out and setting: the same measure for CACCCCTTCTTGTGGA (sugars k3 d10 k3, PS): 40%. As for “GCAGTGATGTCAGGTT (sugars kkddddddddddkeke, PS)”, the target mRNA inhibition in series [1] (MM.1R, 0.074 µM) is 25%; in series [1] (MM.1R, 0.222 µM), 45%; in series [1] (MM.1R, 0.666 µM), 63%; in series [1] (MM.1R, 1 µM) it was 67%; in series [1] (MM.1R, 2 µM) it was 85%. In the case of CACTATTAAACAGCAC (sugars k3 d10 k3, PS), in series [1] (SK-MEL-28, 4 µM), the target mRNA inhibition amounted to 19%.

In the case of TAGTAAGTTCTAGTCG (sugars k3 d10 k3, PS), in series [1] (MM.1R, 1 µM), the target mRNA inhibition is -13%.

Regarding CAGTCAAAGATTCATT (sugars k3 d10 k3, PS), in series [1] (SK-MEL-28, 4 µM), the target mRNA inhibition came to 40%. For the sequence “TGTTACCGATGCTTCA (sugars kkddddddddddkeke, PS)”, the target mRNA inhibition in series [1] (MM.1R, 1 µM) was 25% and 42%.

For the sequence AAACATCCAAAGGGTT (sugars k3 d10 k3, PS), the target mRNA inhibition in series [1] (MM.1R, 1 µM) is -1%. With GCTCACTAAGCTTGAT (sugars k3 d10 k3, PS), in series [1] (SK-MEL-28, 4 µM), the target mRNA inhibition is 56%.

Take CCGGAGGAAGTCCCCT (sugars k3 d10 k3, PS): in series [1] (MM.1R, 1 µM), the target mRNA inhibition stood at 0%.

As for CAAAAGTGCCACAACT (sugars k3 d10 k3, PS), the target mRNA inhibition in series [1] (SK-MEL-28, 4 µM) worked out at 10%. AGTTGTAAATGAGTCG (sugars k3 d10 k3, PS): the target mRNA inhibition in series [1] (SK-MEL-28, 4 µM) is 85%.

Take ACCTACACAGGCTAAT (sugars k3 d10 k3, PS): in series [1] (MM.1R, 1 µM), the target mRNA inhibition was -4%. For CACTAAGTGGGCTCTG (sugars k3 d10 k3, PS), in series [1] (SK-MEL-28, 4 µM), the target mRNA inhibition is 41%. On to CTCCATCAATCATGAT (sugars k3 d10 k3, PS), for which the target mRNA inhibition in series [1] (SK-MEL-28, 4 µM) worked out at 33%. On the same count and under the same terms, the same measure for AGCTAGAACATGATGA (sugars k3 d10 k3, PS): 5%; for AGAACGAGGTAAATCT (sugars k3 d10 k3, PS): 40%. Consider “TCTATAGTGTTCCAGG (sugars kkdddddddddkekek, PS)”, for which, in series [1] (MM.1R, 1 µM), the target mRNA inhibition was 28%. Still for that read-out and setting: the same measure for “AAGCATTTTATCATCC (sugars e1 k2 d9 k2 e2, PS)”: 14%. On to ATGGCGGATAGATCTG (sugars k3 d10 k3, PS), for which the target mRNA inhibition in series [1] (SK-MEL-28, 4 µM) is 57%.

With “GATGTGATAGCTGAGC (sugars kkdddddddddkekek, PS)”, the target mRNA inhibition in series [1] (MM.1R, 1 µM) turned out to be 31%. As for TAAAGAATGAGGGTCA (sugars k3 d10 k3, PS), in series [1] (SK-MEL-28, 4 µM), the target mRNA inhibition was determined as 45%. Take GACTGGAACATTGTTG (sugars k3 d10 k3, PS): the target mRNA inhibition in series [1] (MM.1R, 1 µM) is -41%. In the case of TCTCAGCAAAACGCAG (sugars k3 d10 k3, PS), in series [1] (SK-MEL-28, 4 µM), the target mRNA inhibition is 27%.

Consider “ATGTGATAGCTGAGCT (sugars kddddddddddkekek, PS)”, for which, in series [1] (MM.1R, 1 µM), the target mRNA inhibition was -3%. Still for that read-out and setting: the same measure for GCCCGCAAAAGAAACG (sugars k3 d10 k3, PS): 2%. Still for that read-out and setting: the same measure for “AGTTCATGTAAAGTCT (sugars kkddddddddddkeke, PS)”: 45% and 49%. As to CTATTATAGAGCATCA (sugars k3 d10 k3, PS), the target mRNA inhibition in series [1] (SK-MEL-28, 4 µM) came out at 55%. The same measure, in the same setting: the same measure for TGCCTGAACTGTGTAA (sugars k3 d10 k3, PS): 35%. As to AAGTGGAACTCATAGG (sugars k3 d10 k3, PS), the target mRNA inhibition in series [1] (MM.1R, 1 µM) amounted to 25%.

Take AATAAAATGTCACGCC (sugars k3 d10 k3, PS): the target mRNA inhibition in series [1] (MM.1R, 1 µM) stood at 20%. Regarding CGGGTCTGAGATGTCC (sugars k3 d10 k3, PS), the target mRNA inhibition in series [1] (MM.1R, 1 µM) was -2%. The same measure, in the same setting: the same measure for “CTGCTTGAGGTTTTCC (sugars kddddddddddkekek, PS)”: 8%. For the sequence TGCAAACGACAAGTGG (sugars k3 d10 k3, PS), in series [1] (SK-MEL-28, 4 µM), the target mRNA inhibition came out at 21%. With ACTGTTTTAAGAGGCG (sugars k3 d10 k3, PS), the target mRNA inhibition in series [1] (SK-MEL-28, 4 µM) is 68% and 70%. In the case of “CTTGATAAAGGCTGAA (sugars k2 d9 e3 k2, PS)”, the target mRNA inhibition in series [1] (MM.1R, 1 µM) amounted to 10%. For GTGGGAGTCGGAGCTC (sugars k3 d10 k3, PS), the target mRNA inhibition in series [1] (SK-MEL-28, 4 µM) was 17%. As for GTGACCCACATAACTC (sugars k3 d10 k3, PS), in series [1] (MM.1R, 1 µM), the target mRNA inhibition stood at 7%.

In the case of ACTTGTGACCCACATA (sugars k3 d10 k3, PS), the target mRNA inhibition in series [1] (MM.1R, 1 µM) is -4%. For the sequence TGGCCTTCCTGGCGGA (sugars k3 d10 k3, PS), the target mRNA inhibition in series [1] (SK-MEL-28, 4 µM) was found to be 9%. In the case of TGTCAAAGAGCTTGCA (sugars k3 d10 k3, PS), the target mRNA inhibition in series [1] (SK-MEL-28, 4 µM) stood at 11%. For CATTCGAGGTGATTCT (sugars k3 d10 k3, PS), the target mRNA inhibition in series [1] (MM.1R, 1 µM) came to 11%. For the sequence “GTTGTAAATGAGTCGG (sugars kkdddddddddkdkdk, PS)”, the target mRNA inhibition was found to be 34% in series [1] (MM.1R, 0.074 µM); 45% in series [1] (MM.1R, 0.222 µM); 64% in series [1] (MM.1R, 0.666 µM); 58% in series [1] (MM.1R, 1 µM); 85% in series [1] (MM.1R, 2 µM). Take GCTTATGAAGTTAGTA (sugars k3 d10 k3, PS): the target mRNA inhibition in series [2] (0.02 µM) worked out at 0%; in series [2] (0.078 µM), 17%; in series [2] (0.313 µM), 27%; in series [2] (1 µM), 67%; in series [2] (1.25 µM), 66%; in series [2] (5 µM) it was 86%. Regarding ATACTTACCAATATGG (sugars k3 d10 k3, PS), the target mRNA inhibition in series [2] (1 µM) is 0%. Same read-out and setting: the same measure for “GATTGGAATGCTACTT (sugars k3 d1 m1 d8 k3, PS)”: 48%; for TAAAGGTGGGATAAAC (sugars k3 d10 k3, PS): 0%. On the same count and under the same terms, the same measure for “ATTGTCTAAACATCTC (sugars kkdddddddddkekek, PS)”: 62%. As to TGGATTACATACAAGA (sugars k3 d10 k3, PS), the target mRNA inhibition in series [2] (0.02 µM) was 0%; in series [2] (0.078 µM), 0%; in series [2] (0.313 µM), 21%; in series [2] (1 µM), 68% and 50%; in series [2] (1.25 µM), 58%; in series [2] (5 µM) it was 87%.

Turning to TCATAGTTCAAATTGG (sugars k3 d10 k3, PS), in series [2] (1 µM), the target mRNA inhibition amounted to 47%. In the case of TCCTACAGTGCTTAGT (sugars k3 d10 k3, PS), in series [2] (1 µM), the target mRNA inhibition was determined as 44%. Regarding “ACAATATGGGATGAGG (sugars kkdddddddddkekek, PS)”, the target mRNA inhibition in series [2] (1 µM) was 51%.

With TCATACCACATACCCA (sugars k3 d10 k3, PS), the target mRNA inhibition in series [2] (1 µM) is 41%.

Turning to GAGGTAAGGAATCCCT (sugars k3 d10 k3, PS), the target mRNA inhibition in series [2] (1 µM) amounted to 27%. On the same count and under the same terms, the same measure for TGCCTGCTGAAACTTG (sugars k3 d10 k3, PS): 31%; for TACCACATACGCATGC (sugars k3 d10 k3, PS): 33%; for AATATAGAGGGTCCAC (sugars k3 d10 k3, PS): 7%.

Take CCTTACCAGAATTTAC (sugars k3 d10 k3, PS): the target mRNA inhibition in series [2] (1 µM) stood at 63%.

Regarding TGGGATAGTGGAGGAA (sugars k3 d10 k3, PS), in series [2] (1 µM), the target mRNA inhibition was determined as 13%.

CTAGTTACAAACCACC (sugars k3 d10 k3, PS): the target mRNA inhibition in series [2] (1 µM) worked out at 43%. The same measure, in the same setting: the same measure for GCTATAGGTAGCTAAT (sugars k3 d10 k3, PS): 20%.

CTCAAAGCCTGTTGGA (sugars k3 d10 k3, PS): the target mRNA inhibition in series [2] (1 µM) worked out at 10%. Take CAGGAATGCATAAGAG (sugars k3 d10 k3, PS): the target mRNA inhibition in series [2] (1 µM) came out at 33%.

With ACTGAGTAAACGACTC (sugars k3 d10 k3, PS), in series [2] (1 µM), the target mRNA inhibition worked out at 45%.
